{"source": "paper PMC5298231", "about": "“The Malaria Parasite's Lactate Transporter PfFNT Is the Target of Antiplasmodial Compounds Identified in Whole Cell Phenotypic Screens” (PLoS Pathogens, 2017)", "key": {"Dd2 parent parasites": {"system": "Dd2 parent parasites", "experiment": "Parasite proliferation assay, Dd2 parent", "assay_type": "cell-based, Plasmodium falciparum", "details": "Dd2 parent; mean ± SEM; read-out: IC50 value, growth inhibition", "protocol": "Parasite proliferation was measured in 96-well plates using a fluorescent DNA-intercalating dye [45]. The assays were initiated with erythrocytes infected with predominantly ring-stage parasites, and the starting parasitaemia was 0.5–1% and the haematocrit was 1%."}, "[1]": {"system": "MMV007839-selected culture A (PfFNT Gly107Ser)", "experiment": "Parasite proliferation assay, MMV007839-selected culture A", "assay_type": "cell-based, Plasmodium falciparum", "details": "MMV007839-selected culture A; mean ± SEM; read-out: IC50 value, growth inhibition", "description": "(§1) Parasite proliferation was measured in 96-well plates using a fluorescent DNA-intercalating dye. The assays were initiated with erythrocytes infected with predominantly ring-stage parasites, and the starting parasitaemia was 0.5–1% and the haematocrit was 1%.\n(§2) For MMV007839-selected culture A, the drug concentration was increased by 5 nM increments on Day 18, Day 21, and every two days thereafter. […] The cultures were provided with fresh medium and blood and diluted to reduce the parasitaemia as needed."}, "[2]": {"system": "MMV007839-selected culture B (PfFNT Gly107Ser)", "experiment": "Parasite proliferation assay, MMV007839-selected culture B", "assay_type": "cell-based, Plasmodium falciparum", "details": "MMV007839-selected culture B; mean ± SEM; read-out: IC50 value, growth inhibition", "description": "as §1, §2"}, "[3]": {"system": "PfCRT (from the chloroquine-resistant Dd2 strain)", "experiment": "[3H]chloroquine uptake by Xenopus oocytes expressing PfCRT", "assay_type": "cell-based, Plasmodium falciparum", "details": "1 μM and 4 μM; pH 5.5", "from_the_text": "(PfCRT; from the chloroquine-resistant Dd2 strain) and on [^3H]hypoxanthine transport by oocytes expressing the P. falciparum equilibrative nucleoside/nucleobase transporter PfENT1 [27, 28].\nThe oocyte expression vectors containing PfFNT, PfENT1 and PfCRT were made previously. The Gly107Ser mutant form of PfFNT was generated through site-directed mutagenesis of the oocyte expression vector containing wild-type (3D7) PfFNT using primers 9 and 10 (S2 Table). Oocytes were harvested from adult female Xenopus laevis frogs and prepared as described previously. cRNA was made using the mMessage mMachine T7 transcription kit and the MEGAclear kit (Ambion) and microinjected into oocytes as outlined elsewhere. […] The uptake of radiolabelled substrates was measured 2–5 days post-injection at 27.5°C in ND96 buffer (containing 96 mM NaCl, 2 mM KCl, 1 mM MgCl2, 1.8 mM CaCl2, 10 mM MES and 10 mM Tris-base; pH-adjusted to the value specified in the relevant Figure legends). […] The oocytes were then transferred to separate wells of a 96-well plate, lysed with 10% SDS, and the radioactivity measured as described previously.\nThe data are averaged from four to five independent experiments (performed using oocytes from different frogs) and are shown + SEM. In B, the uptake of [^3H]hypoxanthine (0.36 μM) was measured over 30 min at pH 6.0. […]"}, "[4]": {"system": "erythrocytes infected with 3D7 trophozoites", "assay_type": "cell-based, Plasmodium falciparum", "details": "1 μM, within 10 min; mean ± SEM, n = 3", "from_the_text": "(§3) Fig 6 The effect of MMV007839 on the volume of parasites and parasitised erythrocytes. […] The data are expressed as a percentage volume increase relative to the starting volume, which for isolated parasites (A) ranged from 35 fL to 46 fL in the individual experiments, and for intact infected erythrocytes (B) ranged from 73 fL to 79 fL. In both cases the data shown are the mean ± SEM from three independent experiments performed on different days. For each condition, the (pre-normalised) volume data for each time point greater than 0 was tested for statistical significance compared to the time zero data for that condition; **P < 0.01, ***P < 0.001.\n(§4) The volume of saponin-isolated 3D7 trophozoites and of erythrocytes infected with 3D7 trophozoites was measured using a Beckman Coulter Multisizer 4 fitted with a 100 μm ‘aperture tube’. […] The electrolyte solution within the aperture tube was the same as the Experimental Saline Solution except that it lacked glucose. For experiments on infected erythrocytes, the infected cells were separated from uninfected erythrocytes using a Miltenyi Biotec VarioMACS Magnet and the cells were maintained at 37°C in bicarbonate-free RPMI supplemented with 25 mM HEPES, additional glucose (11 mM) and 0.2 mM hypoxanthine, and pH-adjusted to 7.40. For these measurements the electrolyte solution within the aperture tube differed only from this medium in that it was not supplemented with hypoxanthine or additional glucose. For each measurement of cell volume, approximately 20,000 pulses (each corresponding to the passage of a single cell through the aperture) were recorded. The median volume of the cells within each sample was determined by fitting a log Gaussian distribution curve to the population data."}, "[5]": {"system": "saponin-isolated 3D7 P. falciparum trophozoites", "assay_type": "cell-based, Plasmodium falciparum", "details": "1 μM, within 10 min; mean ± SEM, n = 3", "from_the_text": "as §3, §4"}, "3D7 parasites": {"system": "3D7 parasites", "details": "cited from earlier work"}, "[6]": {"details": "ref [36]; cited from earlier work"}, "[7]": {"system": "isolated 3D7 P. falciparum trophozoites", "experiment": "L-[14C]lactate uptake by isolated 3D7 trophozoites", "details": "pH 6.1, 4°C, 20 s"}, "Dd2 parental parasites": {"system": "Dd2 parental parasites", "experiment": "L-[14C]lactate uptake by isolated Dd2 parental parasites", "details": "read-out: IC50, inhibition of L-[14C]lactate uptake; Dd2 (parental) parasites; pH 6.1, 4°C, 20 s; mean ± SEM"}, "[8]": {"system": "PfFNT^Gly107Ser mutant parasites (MMV007839-selected culture B)", "experiment": "L-[14C]lactate uptake by isolated PfFNT Gly107Ser mutant parasites", "details": "read-out: IC50, inhibition of L-[14C]lactate transport, pH 6.1, 4°C, 20 s, mean ± SEM"}, "[9]": {"system": "3D7 P. falciparum trophozoites", "experiment": "Cytosolic pH (pHcyt) measurement in BCECF-loaded saponin-isolated trophozoites"}, "[10]": {"system": "erythrocytes infected with 3D7 trophozoites (extracellular medium)", "experiment": "LC-MS metabolite profiling, extracellular medium of parasitised erythrocyte suspensions", "details": "6 μM"}}, "note": "Read-outs that look alike come from different tables or passages of the source."}
{"smiles": "COc1ccc2c(c1)OC(O)(C(F)(F)C(F)(F)F)CC2=O", "note": "(stereo not shown) [MMV007839]", "values": [{"measurement": "IC50", "setting": "Dd2 parent parasites", "result": "140 ± 20", "unit": "nM"}, {"measurement": "IC50", "setting": "[1]", "result": "35.8 ± 2.7", "unit": "µM"}, {"measurement": "IC50", "setting": "[2]", "result": "37.5 ± 2.7", "unit": "µM"}, {"measurement": "Effect on transport of [3H]chloroquine via PfCRT", "setting": "[3]", "result": "not inhibiting"}, {"measurement": "Volume increase of erythrocytes infected with 3D7 trophozoites", "setting": "[4]", "result": "5.4 ± 1.0", "unit": "fL"}, {"measurement": "Volume increase of erythrocytes infected with 3D7 trophozoites relative to starting volume", "setting": "[4]", "result": "7.2 ± 1.3", "unit": "%"}, {"measurement": "Volume increase of isolated parasites", "setting": "[5]", "result": "5.1 ± 0.8", "unit": "fL"}, {"measurement": "Volume increase of isolated parasites relative to starting volume", "setting": "[5]", "result": "13.1 ± 2.8", "unit": "%"}, {"measurement": "IC50", "setting": "3D7 parasites; ref [1] Van Voorhis et al. 2016, read-out: IC50 for killing of 3D7 parasites", "result": 280, "unit": "nM"}, {"measurement": "IC50", "setting": "3D7 parasites; ref http://www.mmv.org/research-development/malaria-box-supporting-information, read-out: IC50 against 3D7 parasites, other groups", "result": "283 to 442", "unit": "nM"}, {"measurement": "Toxicity in Malaria Box toxicity testing", "setting": "[6]", "result": "display toxicity in some assays"}, {"measurement": "Inhibition of L-[14C]lactate influx", "setting": "[7]; 0.5 μM", "result": "inhibited L-[^14C]lactate influx to a similar degree"}, {"measurement": "Inhibition of L-[14C]lactate uptake", "setting": "[7]; 2 μM", "result": "complete inhibition"}, {"measurement": "IC50", "setting": "Dd2 parental parasites", "result": "158 ± 42", "unit": "nM"}, {"measurement": "IC50", "setting": "[8]", "result": "16.3 ± 4.4", "unit": "µM"}, {"measurement": "Lactate-induced abrupt acidification of parasite cytosol after pre-treatment", "setting": "[9]; 2.5 μM pre-treatment, 10 mM L-lactate, 4°C", "result": "no such abrupt acidification"}, {"measurement": "Rate of cytosolic acidification after addition of lactate", "setting": "[9]; 2.5 μM, 4°C, 10 mM L-lactate, mean ± SEM, n = 3", "result": "0.011 ± 0.004", "unit": "pH unit/min"}, {"measurement": "Rate of cytosolic acidification before addition of lactate", "setting": "[9]; 2.5 μM, 4°C, mean ± SEM, n = 3", "result": "0.011 ± 0.003", "unit": "pH unit/min"}, {"measurement": "Cytosolic pH restored after restoration of glucose", "setting": "[9]; 2.5 μM, glucose (22 mM) restored to glucose-deprived parasites, gradual alkalinisation after initial acidification of ~2 min", "result": "approximately 7.1"}, {"measurement": "Effect on cytosolic pH in glucose-containing medium", "setting": "[9]; glucose-containing medium, 37°C (Fig 2B,C: 1 μM)", "result": "cytosolic acidification"}, {"measurement": "Extracellular lactate level, treated vs untreated", "setting": "[10]; not statistically significant", "result": "decreased"}, {"measurement": "Extracellular pyruvate level, treated vs untreated", "setting": "[10]; not statistically significant", "result": "increased"}, {"measurement": "Extracellular α-ketoglutarate level, treated vs untreated", "setting": "[10]; not statistically significant", "result": "decreased"}, {"measurement": "Extracellular 3-phosphoglycerate level, treated vs untreated", "setting": "[10]; statistically significant", "result": "increased"}, {"measurement": "Extracellular phosphoenolpyruvate level, treated vs untreated", "setting": "[10]; statistically significant", "result": "increased"}]}
